Laboratory results from ChEMBL document CHEMBL1147836, “Benzo[b]thiophene-2-carboxamides and benzo[b]furan-2-carboxamides are potent antagonists of the human H3-receptor” (Bioorg Med Chem Lett, 2006).

The compounds below were run against Histamine H3 receptor (Homo sapiens, UniProt Q9Y5N1) (assay: Antagonist activity at human histamine H3 receptor by [35S]GTP-gamma-S assay).
Type: functional

Sequence of Histamine H3 receptor (Q9Y5N1 whole entry): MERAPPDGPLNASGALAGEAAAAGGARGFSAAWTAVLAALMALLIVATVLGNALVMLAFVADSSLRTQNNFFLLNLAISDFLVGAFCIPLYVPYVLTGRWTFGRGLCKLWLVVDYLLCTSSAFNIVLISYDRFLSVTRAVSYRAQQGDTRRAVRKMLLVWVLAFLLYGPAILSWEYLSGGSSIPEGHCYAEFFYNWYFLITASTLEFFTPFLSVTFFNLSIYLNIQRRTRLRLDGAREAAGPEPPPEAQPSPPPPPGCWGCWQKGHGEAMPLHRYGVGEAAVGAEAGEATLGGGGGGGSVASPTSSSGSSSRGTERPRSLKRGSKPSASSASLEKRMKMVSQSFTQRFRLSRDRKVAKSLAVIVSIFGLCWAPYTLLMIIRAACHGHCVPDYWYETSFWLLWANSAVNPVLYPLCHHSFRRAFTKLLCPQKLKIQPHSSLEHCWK

Compared with `O=C(c1cc2ccccc2s1)N1CCC[C@H]1CN1CCCC1`, `O=C(c1sc2ccccc2c1Cl)N1CCC[C@H]1CN1CCCC1` is 3-fold higher in Ki: 4 nM for the first, 12 nM for the second. The first binds more tightly here.

`O=C(c1cc2ccc(C(F)(F)F)cc2o1)N1CCC[C@H]1CN1CCCC1` and `O=C(c1cc2ccc(C(F)(F)F)cc2o1)N1CCC[C@H]1CN1CCCCC1` are within 1.5-fold of each other in Ki: 15 nM for the first, 22 nM for the second.

First: O=C(c1cc2cc(C(F)(F)F)ccc2o1)N1CCC[C@H]1CN1CCCCC1
Second: O=C(c1cc2cc(C(F)(F)F)ccc2o1)N1CCC[C@H]1CN1CCCC1
The Ki of the first is 1.8-fold higher: 7 nM for the first, 4 nM for the second. The second binds more tightly here.

`N#Cc1ccc2oc(C(=O)N3CCC[C@H]3CN3CCCC3)cc2c1` and `O=C(c1cc2cc(Cl)ccc2o1)N1CCC[C@H]1CN1CCCC1` are the same in Ki: 5 nM for the first, 5 nM for the second.

First: CCN(CC)C[C@@H]1CCCN1C(=O)c1cc2cc(C(F)(F)F)ccc2o1
Second: CCN(CC)C[C@@H]1CCCN1C(=O)c1cc2ccc(C(F)(F)F)cc2o1
The Ki of the first is 3.3-fold lower: 14 nM for the first, 46 nM for the second. The first binds more tightly here.

`O=C(c1cnc2ccccc2c1)N1CCC[C@H]1CN1CCCC1` and `O=C(c1cnc2ccccc2c1)N1CCC[C@H]1CN1CCCCC1` cannot be ordered by Ki: > 150 nM for the first, > 150 nM for the second.

Compared with `CCOc1cccc2cc(C(=O)N3CCC[C@H]3CN3CCCC3)oc12`, `O=C(c1cc2cc(OC(F)(F)F)ccc2o1)N1CCC[C@H]1CN1CCCC1` is 1.6-fold higher in Ki: 7 nM for the first, 11 nM for the second. The first binds more tightly here.
